Measured values reported in patent US12351574B2, “Selective ligands for modulation of GIRK channels” (Northeastern University, priority 2018, dated 2025).

How the values were obtained:
[1] = cardiovascular radiotelemetry in freely moving rats; format: in vivo, rat; conditions: 30 mg/kg
Description: Cardiovascular experiments: Radiotelemetry probes [Cat. no. HD-S11, Data Sciences International, St. Paul, MN, United States] were surgically implanted into the peritoneal cavity and sutured to the muscle wall in order to assess general motor activity and temperature. A pressure transducer was implanted into the femoral artery to assess cardiovascular responses [i.e., mean arterial blood pressure (MAP) and heart rate (HR)]. Animals were injected with selected compounds following a 10 min baseline period and data points were analayzed between 20 min and 60 min after injection. This allowed us to investigate ligand effects without confounding effects of animal handling or the injection itself and to allow the ligand to cross the blood-brain barrier.

GIRK1/4 = target: T1, GIRK1/4 (Homo sapiens, UniProt P48544+P48549); assay: two-electrode voltage clamp (TEVC) in Xenopus oocytes expressing GIRK1/4 wild-type; format: cell-based; parameters: expressed in transfected cells; host or cells: Xenopus laevis oocytes (cRNA injection)
T1 sequence (P48549 1-501): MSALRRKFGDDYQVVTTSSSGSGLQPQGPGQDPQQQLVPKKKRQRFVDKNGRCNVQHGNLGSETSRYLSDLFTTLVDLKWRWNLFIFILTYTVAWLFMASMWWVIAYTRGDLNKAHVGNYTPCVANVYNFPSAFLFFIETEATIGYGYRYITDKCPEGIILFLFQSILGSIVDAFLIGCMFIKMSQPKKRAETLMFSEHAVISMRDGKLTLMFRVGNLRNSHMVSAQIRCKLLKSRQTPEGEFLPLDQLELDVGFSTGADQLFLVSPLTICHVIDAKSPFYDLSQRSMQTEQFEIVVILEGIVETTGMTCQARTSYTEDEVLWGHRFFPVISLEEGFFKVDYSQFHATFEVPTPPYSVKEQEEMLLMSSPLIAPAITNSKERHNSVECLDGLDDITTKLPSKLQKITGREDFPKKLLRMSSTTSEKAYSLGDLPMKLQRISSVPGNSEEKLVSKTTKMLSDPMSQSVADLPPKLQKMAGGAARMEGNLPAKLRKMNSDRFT
T1 sequence (P48544 1-419): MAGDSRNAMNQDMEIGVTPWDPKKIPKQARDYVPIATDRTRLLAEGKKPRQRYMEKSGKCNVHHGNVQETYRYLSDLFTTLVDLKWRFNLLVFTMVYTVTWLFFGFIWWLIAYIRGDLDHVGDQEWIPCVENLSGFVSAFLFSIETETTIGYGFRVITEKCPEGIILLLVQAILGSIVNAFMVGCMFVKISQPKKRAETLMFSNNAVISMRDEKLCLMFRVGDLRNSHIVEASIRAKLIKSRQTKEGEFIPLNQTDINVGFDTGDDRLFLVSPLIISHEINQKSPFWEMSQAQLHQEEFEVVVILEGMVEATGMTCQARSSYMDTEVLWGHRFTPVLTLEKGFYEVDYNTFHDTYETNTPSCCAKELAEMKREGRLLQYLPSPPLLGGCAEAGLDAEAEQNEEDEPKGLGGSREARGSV
Description: Molecular biology: For Xenopus oocyte expression, human GIRK1 and human GIRK4 cDNAs were subcloned into pGEMHE. For mammalian expression, human GIRK1 and human GIRK4 cDNAs were subcloned into pcDNA3 and pcDNA3.1/V5-His B, respectively (Invitrogen). Mouse GIRK2 cDNA was subcloned in the dual-function vector, pXoom. Point mutations were introduced using a standard Pfu-based mutagenesis technique according to the QuikChange protocol (Agilent). Mutations were verified by sequencing.
Xenopus laevis oocyte expression: Plasmid DNAs of GIRK channel subunits were linearized prior to in vitro transcription. Capped RNAs were transcribed using mMESSAGE mMACHINE T7 Transcription Kit (Thermo Fisher Scientific). Xenopus oocytes were surgically extracted, dissociated and defolliculated by collagenase treatment, and microinjected with 50 nl of a water solution containing 1 ng of each GIRK subunit RNA. For TEVC experiments, oocytes were kept 2 days at 17° C. before recording, while for NPo experiments oocytes were incubated for up to 4 days at 17° C.
Xenopus laevis oocyte expression: All cDNA constructs in the pGEMHE vector were linearized using the NheI restriction enzyme, whereas those in the pXoom vector were linearized using the XhoI restriction enzyme. Linearized cDNAs were in vitro-transcribed using the mMessage mMachine® kit (Ambion) kit. Complementary RNA (cRNA) concentrations were quantified by optical density. Xenopus oocytes were surgically extracted, dissociated, and defolliculated by collagenase treatment and microinjected with 50 nl of the desired cRNAs diluted in RNAase-free water. The use of Xenopus laevis frogs for this study was approved by the Institutional Animal Care and Use Committee (IACUC) at Northeastern University. All constructs used in this study were injected to achieve between 1-2 ng per oocyte depending on the channel. Oocytes were incubated for 2 days at 18° C.
Electrophysiology of oocytes: Whole-oocyte currents were measured by conventional two-electrode voltage clamp (TEVC) with a GeneClamp 500 amplifier (Axon Instruments). […] Barium-sensitive currents were normalized to average basal current in the vehicle solutions. The HK solution contained the following: 96 mM KCl, 1 mM NaCl, 1 mM MgCl2, 5 mM KOH/HEPES, pH 7.4. The barium solution consisted of HK+10 mM BaCl2. Five to ten oocytes from the same batch (same frog) were recorded for each group, and the experiments were repeated in at least four batches. Data acquisition and analysis were carried out using pClamp9 (Molecular Devices) and OriginPro (Microcal) software.

SMILES: Cc1cc(NC(=O)Nc2ccc(Br)s2)n(-c2ccccc2)n1 [GAT1508, 1-(5-bromothiophen-2-yl)-3-(3-methyl-1-phenyl-1H-pyrazol-5-yl)urea]
- change in heart rate (HR) (in words) [1]: no significant changes
- change in locomotor activity (LA) (in words) [1]: no significant changes
- change in mean arterial pressure (MAP) (in words) [1]: no significant changes
- GAT1508-induced potassium current, GIRK1/4 (in words) (GIRK1/4; 10 μM, 10 mM K+, holding potential −100 mV): not
- GAT1508-induced thallium current, GIRK1/4 (in words) (GIRK1/4; 10 μM, 10 mM thallium, holding potential −100 mV): induced current increases

SMILES: Cc1cc(NC(=O)Nc2ccc(F)c(F)c2)n(-c2ccccc2)n1 [ML297, reference compound]
- change in body temperature (BT) (in words) [1]: without affecting significantly
- change in heart rate (HR) (in words) [1]: paradoxical long-lasting increases
- change in locomotor activity (LA) (in words) [1]: without affecting significantly
- change in mean arterial pressure (MAP) (in words) [1]: paradoxical long-lasting increases
- compound-induced current normalized to the basal current, GIRK1+GIRK4 (GIRK1/4; 10 μM, High Potassium (HK) solution, FIG. 31): ~1.75
- EMAX at GIRK1/4, % relative to ML297 (GIRK1/4; ML297 considered 100%): 100%
- EC50 (GIRK1/4; TEVC, Xenopus oocytes, GIRK1/4 wild-type): 500 ± 260 nM
- EMAX at GIRK1/4 (GIRK1/4; current normalized to basal current): 1.60±0.07
